Drawing on US9670208B2, “Serine/threonine kinase inhibitors” (Array BioPharma Inc., priority 2013, dated 2017), this text covers IC50 for 22 molecules.

The structures appear in SMILES notation. Where only a bound is given, the exact number is not on record here.

The target of test [1] is human ERK-2 (Mitogen Activated Kinase 1) (Homo sapiens (Human), UniProt P28482). The test can be described thus: ERK-2 Enzymatic Assay. The conditions noted are these: ERK-2 enzyme, 25 μM ATP; single assay or mean of multiple assays; read-out: Biological Example 1 IC50. Format: biochemical.
human ERK-2 (Mitogen Activated Kinase 1), sequence (P28482 8-360): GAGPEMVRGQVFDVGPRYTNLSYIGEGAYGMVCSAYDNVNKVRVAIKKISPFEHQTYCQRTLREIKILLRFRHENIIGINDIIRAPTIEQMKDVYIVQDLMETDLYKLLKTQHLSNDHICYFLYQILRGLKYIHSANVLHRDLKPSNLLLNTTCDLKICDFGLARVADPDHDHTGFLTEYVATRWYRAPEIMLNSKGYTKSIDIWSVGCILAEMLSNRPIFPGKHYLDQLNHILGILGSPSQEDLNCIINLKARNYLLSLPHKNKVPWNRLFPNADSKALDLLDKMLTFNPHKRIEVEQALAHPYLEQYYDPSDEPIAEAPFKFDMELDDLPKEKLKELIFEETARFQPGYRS
Test [2] relates to PMA-stimulated P90RSK(Ser380) phosphorylation in HepG2 cells. The experiment in a line: Cellular P90RSK(Ser380) Phosphorylation Assay. Format: cell-based. Particulars: Homo sapiens, 1.5 hours compound incubation, PMA 100 ng/mL, normalized to GAPDH, single assay or mean of multiple assays, read-out: Biological Example 2 IC50. The method, then:
Inhibition of PMA-stimulated P90RSK(Ser380) phosphorylation was determined by the following in vitro cellular mechanistic assay, which comprises incubating cells with a compound for 1.5 hours and quantifying fluorescent pP90RSK(Ser380) signal on fixed cells and normalizing to GAPDH signal.
HepG2 cells were obtained from ATCC (Manassas, Va.) and grown in DMEM supplemented with 10% fetal bovine serum. Cells were plated in 96-well plates at 35,000 cells/well and allowed to attach overnight at 37° C./5% CO2. Diluted compounds were then added at a final concentration of 0.5% DMSO. After 1.5 hours compound incubation, cells were stimulated with the addition of phorbol 12-myristate 13-acetate (“PMA”) at a final concentration of 100 ng/mL; the PMA stimulation was a 30-minute incubation at 37° C./5% CO2. After the 30-minute PMA stimulation, cells were washed with phosphate buffered saline (“PBS”) and fixed in 3.7% formaldehyde in PBS at room temperature for 15-20 minutes. This was followed by another wash in PBS and then permeabilization in 100% MeOH at room temperature for 10-15 minutes. Following the permeabilization incubation, cells were washed in PBS/0.05% Tween-20, followed by a block in Odyssey blocking buffer (LI-COR Biosciences) for at least 1 hour. Antibodies to phosphorylated P90RSK(Ser380) (Cell Signaling #9335, rabbit monoclonal) and GAPDH (Fitzgerald 10R-G109a, mouse monoclonal) were added to the cells and incubated overnight at 4° C. pP90RSK(Ser380) antibody was used at a 1:250 dilution; GAPDH was used at a 1:10,000 dilution. After washing with PBS/0.05% Tween-20, the cells were incubated with fluorescently-labeled secondary antibodies (Anti-rabbit-Alexa Flour680, Invitrogen Cat#A21109; Anti-mouse-IRDye800CW, Rockland Inc. Cat#610-131-121) for 1 hour. Both secondary antibodies were used at a 1:1000 dilution. Cells were then washed and analyzed for fluorescence at both wavelengths using the Odyssey Infrared Imaging System (LI-COR Biosciences). Phosphorylated P90RSK(Ser380) signal was normalized to GAPDH signal.

By IC50 is commonly meant the concentration that inhibits the measured activity by half. As to `Cn1nccc1Nc1nccc(-c2ccn3c(C4OCCc5ccccc54)nnc3c2)n1` (centres unmarked) [Example 192, 4-(3-(isochroman-1-yl)-[1,2,4]triazolo[4,3-a]pyridin-7-yl)-N-(1-methyl-1H-pyrazol-5-yl)pyrimidin-2-amine], the IC50 was determined as 6 nM in test [1] and 37.5 nM in test [2].
The like results for `CO[C@@H](c1ccccc1)c1nnc2cc(-c3ccnc(NC4CCOCC4)n3)ccn12` [Example 195, (S)-4-(3-(methoxy(phenyl)methyl)-[1,2,4]triazolo[4,3-a]pyridin-7-yl)-N-(tetrahydro-2H-pyran-4-yl)pyrimidin-2-amine] were, in that order, 24.9 nM and 39.7 nM.
The like results for `COc1ccc(Cc2nnc3cc(-c4ccnc(NC5CCOCC5)n4)ccn23)cn1` [Example 272, 4-(3-((6-methoxypyridin-3-yl)methyl)-[1,2,4]triazolo[4,3-a]pyridin-7-yl)-N-(tetrahydro-2H-pyran-4-yl)pyrimidin-2-amine] were, in that order, 0.9 nM and 95.4 nM.
Regarding `Cn1nccc1Nc1nccc(-c2ccn3c(Cc4cccc(-c5ccccc5)n4)nnc3c2)n1` [Example 275, N-(1-methyl-1H-pyrazol-5-yl)-4-(3-((6-phenylpyridin-2-yl)methyl)-[1,2,4]triazolo[4,3-a]pyridin-7-yl)pyrimidin-2-amine], the values for the half-inhibitory concentration (IC50) in test [1] and in test [2] were 1.5 nM and 20 nM, respectively.
In the case of `Cc1ccnc(Cc2nnc3cc(-c4ccnc(Nc5ccnn5C)n4)ccn23)c1` [Example 276, N-(1-methyl-1H-pyrazol-5-yl)-4-(3-((4-methylpyridin-2-yl)methyl)-[1,2,4]triazolo[4,3-a]pyridin-7-yl)pyrimidin-2-amine], the IC50 in test [1] worked out at 0.9 nM; in test [2], 51.7 nM.
For `c1ccc(Cc2nnc3cc(-c4ccnc(NC5CCOCC5)n4)ccn23)nc1` [Example 278, 4-(3-(pyridin-2-ylmethyl)-[1,2,4]triazolo[4,3-a]pyridin-7-yl)-N-(tetrahydro-2H-pyran-4-yl)pyrimidin-2-amine], the IC50 in test [1] was found to be 0.8 nM; in test [2] it was 67.6 nM.
For `Cn1nccc1Nc1cc(-c2ccn3c(CC(C)(C)C)nnc3c2)ccn1` [Example 279, N-(1-methyl-1H-pyrazol-5-yl)-4-(3-neopentyl-[1,2,4]triazolo[4,3-a]pyridin-7-yl)pyridin-2-amine] the same measures were 0.6 nM and 51.9 nM.
For `Cn1nccc1Nc1cc(-c2ccn3c(CC4CC4)nnc3c2)ccn1` [Example 295, 4-(3-(cyclopropylmethyl)-[1,2,4]triazolo[4,3-a]pyridin-7-yl)-N-(1-methyl-1H-pyrazol-5-yl)pyridin-2-amine] the same measures were 0.4 nM and 117 nM.
Turning to `Cn1nccc1Nc1nccc(-c2ccn3c(CS(=O)(=O)c4ccccc4)nnc3c2)n1` [Example 306, N-(1-methyl-1H-pyrazol-5-yl)-4-(3-((phenylsulfonyl)methyl)-[1,2,4]triazolo[4,3-a]pyridin-7-yl)pyrimidin-2-amine], the values for the IC50 in test [1] and in test [2] were 1.8 nM and 63.7 nM, respectively.
On to `Cn1nccc1Nc1nccc(-c2ccn3c(CSC4CCCC4)nnc3c2)n1` [Example 307, 4-(3-((cyclopentylthio)methyl)-[1,2,4]triazolo[4,3-a]pyridin-7-yl)-N-(1-methyl-1H-pyrazol-5-yl)pyrimidin-2-amine], for which the IC50 in test [1] was 3.5 nM; in test [2], 32.2 nM.
For the molecule `Cn1nccc1Nc1nccc(-c2ccn3c(CC4CCC(F)(F)CC4)nnc3c2)n1` [Example 317, 4-(3-((4,4-difluorocyclohexyl)methyl)-[1,2,4]triazolo[4,3-a]pyridin-7-yl)-N-(1-methyl-1H-pyrazol-5-yl)pyrimidin-2-amine], the IC50 in test [1] is 0.9 nM; in test [2], 35.8 nM.
The like results for `CN(C)C(c1ccc(F)cc1)c1nnc2cc(-c3ccnc(Nc4ccnn4C)n3)ccn12` (centres unmarked) [Example 377, 4-(3-((dimethylamino)(4-fluorophenyl)methyl)-[1,2,4]triazolo[4,3-a]pyridin-7-yl)-N-(1-methyl-1H-pyrazol-5-yl)pyrimidin-2-amine] were, in that order, 5.4 nM and 82.9 nM.
As for `Cn1nccc1Nc1nccc(-c2ccn3c(CC45CC6CC(CC(C6)C4)C5)nnc3c2)n1` [Example 379, 4-(3-((1s,3s)-adamantan-1-ylmethyl)-[1,2,4]triazolo[4,3-a]pyridin-7-yl)-N-(1-methyl-1H-pyrazol-5-yl)pyrimidin-2-amine], the results for the IC50 in test [1] and in test [2] were 2.4 nM and 24.7 nM, respectively.
In the case of `Cn1nccc1Nc1cc(-c2ccn3c(CC4(C(F)(F)F)CC4)nnc3c2)ccn1` [Example 396, N-(1-methyl-1H-pyrazol-5-yl)-4-(3-((1-(trifluoromethyl)cyclopropyl)methyl)-[1,2,4]triazolo[4,3-a]pyridin-7-yl)pyridin-2-amine], the IC50 in test [1] is 3.3 nM; in test [2], 35.4 nM.
Regarding `Fc1ccccc1Cc1nnc2cc(-c3ccnc(NC4CCOCC4)n3)ccn12` [Example 398, 4-(3-(2-fluorobenzyl)-[1,2,4]triazolo[4,3-a]pyridin-7-yl)-N-(tetrahydro-2H-pyran-4-yl)pyrimidin-2-amine], the IC50 is 3 nM in test [1] and 15.5 nM in test [2].
`Fc1ccc(Cc2nnc3cc(-c4ccnc(NC5CCOCC5)n4)ccn23)cc1` [Example 402, 4-(3-(4-fluorobenzyl)-[1,2,4]triazolo[4,3-a]pyridin-7-yl)-N-(tetrahydro-2H-pyran-4-yl)pyrimidin-2-amine]: the figures for the IC50 in test [1] and in test [2] were 0.6 nM and 27.4 nM, respectively.
For `COc1ccc(Cc2nnc3cc(-c4ccnc(NC5CCOCC5)n4)ccn23)cc1F` [Example 403, 4-(3-(3-fluoro-4-methoxybenzyl)-[1,2,4]triazolo[4,3-a]pyridin-7-yl)-N-(tetrahydro-2H-pyran-4-yl)pyrimidin-2-amine] the same measures were 0.9 nM and 18.6 nM.
In the case of `Cn1nccc1Nc1nccc(-c2ccn3cnnc3c2)n1` [Example 411, 4-([1,2,4]triazolo[4,3-a]pyridin-7-yl)-N-(1-methyl-1H-pyrazol-5-yl)pyrimidin-2-amine], the IC50 in test [1] was found to be 11 nM; in test [2] it was 607 nM.
The like results for `CC(=O)NC(Cc1nnc2cc(-c3ccnc(Nc4ccnn4C)n3)ccn12)c1ccc(F)c(Cl)c1` (centres unmarked) [Example 467, N-(1-(3-chloro-4-fluorophenyl)-2-(7-(2-((1-methyl-1H-pyrazol-5-yl)amino)pyrimidin-4-yl)-[1,2,4]triazolo[4,3-a]pyridin-3-yl)ethyl)acetamide] were, in that order, 1.8 nM and 3350 nM.
Take `CCOc1ccc(Cc2nnc3cc(-c4ccnc(Nc5ccnn5C)n4)ccn23)cn1` [Example 493, 4-(3-((6-ethoxypyridin-3-yl)methyl)-[1,2,4]triazolo[4,3-a]pyridin-7-yl)-N-(1-methyl-1H-pyrazol-5-yl)pyrimidin-2-amine]: the figures for the IC50 in test [1] and in test [2] were 0.8 nM and 117 nM, respectively.
For `Cn1nccc1Nc1nccc(-c2ccn3c(C(=O)N4CCCC4)nnc3c2)n1` [Example 512, (7-(2-((1-methyl-1H-pyrazol-5-yl)amino)pyrimidin-4-yl)-[1,2,4]triazolo[4,3-a]pyridin-3-yl)(pyrrolidin-1-yl)methanone], the IC50 in test [1] was 172 nM; in test [2] it was more than 5000 nM.
The like results for `Cn1nccc1Nc1nccc(-c2ccn3c(CC(C)(O)C4CC4)nnc3c2)n1` (centres unmarked) [Example 563, 2-cyclopropyl-1-(7-(2-((1-methyl-1H-pyrazol-5-yl)amino)pyrimidin-4-yl)-[1,2,4]triazolo[4,3-a]pyridin-3-yl)propan-2-ol] were, in that order, 661 nM and more than 5000 nM.
